Results on 20 compounds are retold here after patent US9346815B2, “5-chloro-2-difluoromethoxyphenyl pyrazolopyrimidine compounds, compositions and methods of use thereof” (Genentech, Inc., priority 2014, dated 2016).

In assay [1] the target is isolated recombinant JAK2 kinase domain (Homo sapiens (Human), UniProt O60674). The experiment in a line: JAK2 enzyme assay (Caliper LabChip, peptide phosphorylation). Type of assay: biochemical. Particulars: 25 μM ATP.
Assay [2] addresses isolated recombinant JAK1 kinase domain (Homo sapiens (Human), UniProt P23458). The assay is described as follows: JAK1 enzyme assay (Caliper LabChip, peptide phosphorylation). It is filed as biochemical. The conditions noted are these: isolated recombinant JAK1 kinase domain, 25 μM ATP.
Assay [3] deals with JAK1-dependent STAT6 phosphorylation downstream of IL-13 stimulation in BEAS-2B human bronchial epithelial cells. The assay is described as follows: JAK1 pathway assay in BEAS-2B cells (IL-13-pSTAT6, MSD). It is filed as cell-based. Particulars: read-out: IL13-pSTAT6 EC50 (uM)_BEAS-2B. On the procedure: JAK1 Pathway Assay in Cell Lines was Carried Out as Follows:
Inhibitor potency (EC50) was determined in cell-based assays designed to measure JAK1 dependent STAT phosphorylation.
In one assay approach, TF-1 human erythroleukemia cells obtained from the American Type Culture Collection (ATCC; Manassas, Va.) were used to measure JAK1-dependent STAT6 phosphorylation downstream of IL-13 stimulation. Prior to use in the assays, TF-1 cells were starved of GM-CSF overnight in OptiMEM medium (Life Technologies, Grand Island, N.Y.) supplemented with 0.5% charcoal/dextran stripped fetal bovine serum (FBS), 0.1 mM non-essential amino acids (NEAA), and 1 mM sodium pyruvate. The assays were run in 384-well plates in serum-free OptiMEM medium using 300,000 cells per well. In a second assay approach, BEAS-2B human bronchial epithelial cells obtained from ATCC were plated at 100,000 cells per well of a 96-well plate one day prior to the experiment. The BEAS-2B assay was run in complete growth medium (bronchial epithelial basal medium plus bulletkit; Lonza; Basel, Switzerland).
Test compounds were serially diluted 1:2 in DMSO and then diluted 1:50 in medium just before use. Diluted compounds were added to the cells, for a final DMSO concentration of 0.2%, and incubated for 30 min (for the TF-1 assay) or 1 hr (for the BEAS-2B assay) at 37° C. Then, cells were stimulated with human recombinant cytokine at their respective EC90 concentrations, as previously determined for each individual lot. Cells were stimulated with IL-13 (R&D Systems, Minneapolis, Minn.) for 15 min at 37° C. The TF-1 cell reactions were stopped by the direct addition of 10× lysis buffer (Cell Signaling Technologies, Danvers, Mass.), whereas the BEAS-2B cell incubations were halted by the removal of medium and addition of 1× lysis buffer. The resultant samples were frozen in the plates at −80° C. Compound mediated inhibition of STAT6 phosphorylation was measured in the cell lysates using MesoScale Discovery (MSD) technology (Gaithersburg, Md.).

Sequence of isolated recombinant JAK1 kinase domain (P23458 875-1153): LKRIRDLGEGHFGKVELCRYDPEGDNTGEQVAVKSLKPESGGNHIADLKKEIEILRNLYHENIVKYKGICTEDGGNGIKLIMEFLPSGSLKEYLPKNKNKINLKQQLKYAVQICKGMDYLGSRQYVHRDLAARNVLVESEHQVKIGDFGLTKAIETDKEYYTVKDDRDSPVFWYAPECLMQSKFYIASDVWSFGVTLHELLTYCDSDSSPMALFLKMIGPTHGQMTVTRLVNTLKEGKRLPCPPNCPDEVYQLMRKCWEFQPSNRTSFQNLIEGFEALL
Sequence of isolated recombinant JAK2 kinase domain (O60674 849-1124): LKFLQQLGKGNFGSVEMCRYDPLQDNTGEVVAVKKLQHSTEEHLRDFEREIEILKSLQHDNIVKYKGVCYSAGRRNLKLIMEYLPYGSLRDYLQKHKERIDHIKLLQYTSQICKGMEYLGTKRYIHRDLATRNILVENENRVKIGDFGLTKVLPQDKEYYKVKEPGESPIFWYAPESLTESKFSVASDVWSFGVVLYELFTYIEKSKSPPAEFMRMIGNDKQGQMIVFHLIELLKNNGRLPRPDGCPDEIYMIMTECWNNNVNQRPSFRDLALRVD

Take `CC(C)(C)OC(=O)N1CC[C@@H](n2cc(NC(=O)c3cnn4cccnc34)c(-c3cc(Cl)ccc3OC(F)F)n2)[C@H](O)C1` (single isomer, unassigned) [Example 354]: the figures for the Ki in assay [1] and in assay [2] were 1.05 nM and 0.72 nM, respectively. In assay [3], the EC50 (as a rule, the concentration needed to bring the measured effect to its halfway point) was 0.024 µM.
Consider `CC(C)(C)OC(=O)N1CC[C@H](n2cc(NC(=O)c3cnn4cccnc34)c(-c3cc(Cl)ccc3OC(F)F)n2)[C@@H](O)C1` (single isomer, unassigned) [Example 355], for which the Ki (usually a dissociation constant, usually derived from enzyme kinetics or from competition with a known ligand) in assay [1] is 3.72 nM; in assay [2], 3.32 nM. In assay [3], the EC50 was found to be 0.0678 µM.
Taken in the same sequence, the figures for `CC(C)(C)OC(=O)N1CC[C@@H](O)[C@H](n2cc(NC(=O)c3cnn4cccnc34)c(-c3cc(Cl)ccc3OC(F)F)n2)C1` (single isomer, unassigned) [Example 356] were 2.37 nM, 2.64 nM and 0.0396 µM.
In the case of `CC(C)(C)OC(=O)N1CC[C@H](O)[C@@H](n2cc(NC(=O)c3cnn4cccnc34)c(-c3cc(Cl)ccc3OC(F)F)n2)C1` (single isomer, unassigned) [Example 357], the inhibitory constant (Ki) in assay [1] was 1.06 nM; in assay [2], 1.22 nM. In addition, in assay [3], the EC50 was found to be 0.0216 µM.
For `N#Cc1ccc(CN2CCN(C(=O)Cn3cc(NC(=O)c4cnn5cccnc45)c(-c4cc(Cl)ccc4OC(F)F)n3)CC2)cc1` [Example 238, N-[3-[5-chloro-2-(difluoromethoxy)phenyl]-1-[2-[4-[(4-cyanophenyl)methyl]piperazin-1-yl]-2-oxo-ethyl]pyrazol-4-yl]pyrazolo[1,5-a]pyrimidine-3-carboxamide], the Ki in assay [1] was 0.55 nM; in assay [2], 0.45 nM. Further, in assay [3], the EC50 was found to be 0.0218 µM.
For `O=C(O)CN1CCN(C(=O)Cn2cc(NC(=O)c3cnn4cccnc34)c(-c3cc(Cl)ccc3OC(F)F)n2)CC1` [Example 310, 2-[4-(2-[3-[5-chloro-2-(difluoromethoxy)phenyl]-4-[pyrazolo[1,5-a]pyrimidine-3-amido]-1H-pyrazol-1-yl]acetyl)piperazin-1-yl]acetic acid] the same measures were 0.59 nM, 0.52 nM and 8.83 µM.
For `O=C(O)CNC1CCN(CCn2cc(NC(=O)c3cnn4cccnc34)c(-c3cc(Cl)ccc3OC(F)F)n2)CC1` [Example 311, 2-[[1-(2-[3-[5-chloro-2-(difluoromethoxy)phenyl]-4-[pyrazolo[1,5-a]pyrimidine-3-amido]-1H-pyrazol-1-yl]ethyl)piperidin-4-yl]amino]acetic acid] the same measures were 0.73 nM, 1.25 nM and 2.6 µM.
As for `CSCCNCCn1cc(NC(=O)c2cnn3cccnc23)c(-c2cc(Cl)ccc2OC(F)F)n1` [Example 312, N-[3-[5-chloro-2-(difluoromethoxy)phenyl]-1-(2-[[2-(methylsulfanyl)ethyl]amino]ethyl)-1H-pyrazol-4-yl]pyrazolo[1,5-a]pyrimidine-3-carboxamide], the Ki worked out at 0.32 nM in assay [1] and 0.4 nM in assay [2]. Besides, the EC50 in assay [3] is 0.0719 µM.
For `O=C(Nc1cn(CCNCc2ccccn2)nc1-c1cc(Cl)ccc1OC(F)F)c1cnn2cccnc12` [Example 314, N-[3-[5-chloro-2-(difluoromethoxy)phenyl]-1-[2-[(pyridin-2-ylmethyl)amino]ethyl]-1H-pyrazol-4-yl]pyrazolo[1,5-a]pyrimidine-3-carboxamide] the same measures were 0.39 nM, 0.62 nM and 0.0995 µM.
For `O=C(Nc1cn(CCNCc2ccncc2)nc1-c1cc(Cl)ccc1OC(F)F)c1cnn2cccnc12` [Example 315, N-[3-[5-chloro-2-(difluoromethoxy)phenyl]-1-[2-[(pyridin-4-ylmethyl)amino]ethyl]-1H-pyrazol-4-yl]pyrazolo[1,5-a]pyrimidine-3-carboxamide] the same measures were 0.4 nM, 0.72 nM and 0.0823 µM.
As for `CC(c1ccccc1)N1CCN(C(=O)Cn2cc(NC(=O)c3cnn4cccnc34)c(-c3cc(Cl)ccc3OC(F)F)n2)CC1` (stereo not shown) [Example 316, N-[3-[5-chloro-2-(difluoromethoxy)phenyl]-1-[2-oxo-2-[4-(1-phenylethyl)piperazin-1-yl]ethyl]-1H-pyrazol-4-yl]pyrazolo[1,5-a]pyrimidine-3-carboxamide], the Ki came to 1.04 nM in assay [1] and 0.48 nM in assay [2]. For the same compound, the EC50 in assay [3] was found to be 0.142 µM.
Take `CC(C)CN1CCN(C(=O)Cn2cc(NC(=O)c3cnn4cccnc34)c(-c3cc(Cl)ccc3OC(F)F)n2)CC1` [Example 317, N-[3-[5-chloro-2-(difluoromethoxy)phenyl]-1-[2-[4-(2-methylpropyl)piperazin-1-yl]-2-oxoethyl]-1H-pyrazol-4-yl]pyrazolo[1,5-a]pyrimidine-3-carboxamide]: the results for the Ki in assay [1] and in assay [2] were 1.16 nM and 0.64 nM, respectively. Besides, the EC50 in assay [3] was 0.0229 µM.
Consider `CCOC(=O)CNC1CCN(C(=O)Cn2cc(NC(=O)c3cnn4cccnc34)c(-c3cc(Cl)ccc3OC(F)F)n2)CC1` [Example 364, ethyl 2-[[1-(2-[3-[5-chloro-2-(difluoromethoxy)phenyl]-4-[pyrazolo[1,5-a]pyrimidine-3-amido]-1H-pyrazol-1-yl]acetyl)piperidin-4-yl]amino]acetate], for which, in assay [1], the Ki amounted to 1.6 nM. In addition, the EC50 in assay [3] came to 0.0952 µM.
`O=C(Nc1cn(CCNCc2cccnc2)nc1-c1cc(Cl)ccc1OC(F)F)c1cnn2cccnc12` [Example 368, N-[3-[5-chloro-2-(difluoromethoxy)phenyl]-1-[2-[(pyridin-3-ylmethyl)amino]ethyl]-1H-pyrazol-4-yl]pyrazolo[1,5-a]pyrimidine-3-carboxamide]: the Ki in assay [1] is 0.51 nM. Moreover, the EC50 in assay [3] stood at 0.056 µM.
Taken in the same sequence, the figures for `C[C@@H](NCCn1cc(NC(=O)c2cnn3cccnc23)c(-c2cc(Cl)ccc2OC(F)F)n1)c1ccccc1` [Example 384, N-[3-[5-chloro-2-(difluoromethoxy)phenyl]-1-(2-[[(1R)-1-phenylethyl]amino]ethyl)-1H-pyrazol-4-yl]pyrazolo[1,5-a]pyrimidine-3-carboxamide] were 0.23 nM and 0.139 µM.
For `C[C@H](NCCn1cc(NC(=O)c2cnn3cccnc23)c(-c2cc(Cl)ccc2OC(F)F)n1)c1ccccc1` [Example 385, N-[3-[5-chloro-2-(difluoromethoxy)phenyl]-1-(2-[[(1S)-1-phenylethyl]amino]ethyl)-1H-pyrazol-4-yl]pyrazolo[1,5-a]pyrimidine-3-carboxamide] the same measures were 0.3 nM and 0.163 µM.
For `N#CC1CCN(C2CCN(C(=O)Cn3cc(NC(=O)c4cnn5cccnc45)c(-c4cc(Cl)ccc4OC(F)F)n3)CC2)C1` (stereo not shown) [Example 409, N-(3-(5-chloro-2-(difluoromethoxy)phenyl)-1-(2-(4-(3-cyanopyrrolidin-1-yl)piperidin-1-yl)-2-oxoethyl)-1H-pyrazol-4-yl)pyrazolo[1,5-a]pyrimidine-3-carboxamide], the inhibition constant Ki in assay [1] amounted to 0.89 nM. In addition, in assay [3], the EC50 came to 0.0196 µM.
For `O=C(CN1CCCCC1)Cn1cc(NC(=O)c2cnn3cccnc23)c(-c2cc(Cl)ccc2OC(F)F)n1` [Example 418, N-(3-(5-chloro-2-(difluoromethoxy)phenyl)-1-(2-oxo-3-(piperidin-1-yl)propyl)-1H-pyrazol-4-yl)pyrazolo[1,5-a]pyrimidine-3-carboxamide] the same measures were 0.8 nM and 0.0609 µM.
On to `O=C(Nc1cn(Cc2cn(C3CCN(C4CCOCC4)CC3)nn2)nc1-c1cc(Cl)ccc1OC(F)F)c1cnn2cccnc12` [Example 457, N-(3-(5-chloro-2-(difluoromethoxy)phenyl)-1-((1-(1-(tetrahydro-2H-pyran-4-yl)piperidin-4-yl)-1H-1,2,3-triazol-4-yl)methyl)-1H-pyrazol-4-yl)pyrazolo[1,5-a]pyrimidine-3-carboxamide], for which the Ki in assay [2] worked out at 0.45 nM. The EC50 in assay [3] worked out at 0.0156 µM.
With `CN(C1CCN(C(=O)Cn2cc(NC(=O)c3cnn4cccnc34)c(-c3cc(Cl)ccc3OC(F)F)n2)CC1)C1COC1` [Example 459, N-(3-(5-chloro-2-(difluoromethoxy)phenyl)-1-(2-(4-(methyl(oxetan-3-yl)amino)piperidin-1-yl)-2-oxoethyl)-1H-pyrazol-4-yl)pyrazolo[1,5-a]pyrimidine-3-carboxamide], in assay [2], the Ki was determined as 0.3 nM. The EC50 in assay [3] amounted to 0.0075 µM.
